Reference: patent US10745360B2, “Quinoxaline compounds, method for preparing the same and use thereof” (Development Center for Biotechnology, priority 2014, dated 2020)

Columns and labels:
[1] = system: B-Raf^V600E mutant COLO205 colon cancer cell; test: Cell proliferation assay (CELLTITER 96), COLO205; assay type: cell-based; details: Homo sapiens, COLO 205; COLO205, 72 hours; read-out: Cytotoxicity (IC50 Ranking) COLO205 (B-Raf^V600E)
Description: (§1) Inhibition of cell growth by compounds was measured using CELLTITER 96® assay. The cytotoxicity of compounds was evaluated in B-Raf^V600E mutant A375 melanoma cell, B-Raf^V600E mutant COLO205 colon cancer cell, and SK-MEL-2 melanoma cell with wild type B-Raf (B-Raf^wt) and NRASQ^Q61R mutation. A375 and COLO205 cell line were cultured in DMEM containing 10% FCS and incubated at 37° C. in 5% CO2 atmosphere. SK-MEL-2 cell line was cultured in MEM containing 10% FCS and incubated at 37° C. in 5% CO2 atmosphere. A375, COLO205 and SK-MEL-2 cell were seeded into 96-well plates at 2000, 2000, and 4000 cells/well, respectively, and allowed to adhere for overnight. Then, these seeded cells were treated with increasing concentrations of the test compounds and incubated for another 72 hours. At the end of the incubation, CELLTITER 96® Aqueous One Solution Reagent (Promega) was added and incubated for 4 hours. Cell viability was determined by measuring absorbance at 490 nm using EMAX® microplate reader (Molecular Devices).
(§2) The 50% inhibitory concentration (IC50) value was calculated by plotting the percentage of growth inhibition against the concentration of compound, using GraphPad Prism5 software for curve fitting.

[2] = system: B-Raf^V600E mutant A375 melanoma cell; test: Cell proliferation assay (CELLTITER 96), A375; assay type: cell-based; details: Homo sapiens, A-375; A375, 72 hours; read-out: Cytotoxicity (IC50 Ranking) A375 (B-Raf^V600E)
Description: as §1, §2

[3] = system: SK-MEL-2 melanoma cell with wild type B-Raf (B-Raf^wt) and NRAS^Q61R mutation; test: Cell proliferation assay (CELLTITER 96), SK-MEL-2; assay type: cell-based; details: Homo sapiens; SK-MEL-2, 72 hours; given as bound; read-out: Cytotoxicity (IC50 Ranking) SK-MEL-2 (NRAS^Q61R, B-Raf^wt)
Description: as §1, §2

[4] = molecular target: T1, B-Raf^V600E kinase (Homo sapiens, UniProt P15056, V600E); test: B-Raf V600E kinase assay ([33P] incorporation into MEK1 K97R); assay type: biochemical; details: recombinant B-Raf^V600E, 8 μM ATP, 30 min, 30° C.; read-out: IC50 ranking against B-Raf^V600E kinase
T1 construct: purchased Upstate Biotechnology
T1 sequence (P15056 whole entry V600E): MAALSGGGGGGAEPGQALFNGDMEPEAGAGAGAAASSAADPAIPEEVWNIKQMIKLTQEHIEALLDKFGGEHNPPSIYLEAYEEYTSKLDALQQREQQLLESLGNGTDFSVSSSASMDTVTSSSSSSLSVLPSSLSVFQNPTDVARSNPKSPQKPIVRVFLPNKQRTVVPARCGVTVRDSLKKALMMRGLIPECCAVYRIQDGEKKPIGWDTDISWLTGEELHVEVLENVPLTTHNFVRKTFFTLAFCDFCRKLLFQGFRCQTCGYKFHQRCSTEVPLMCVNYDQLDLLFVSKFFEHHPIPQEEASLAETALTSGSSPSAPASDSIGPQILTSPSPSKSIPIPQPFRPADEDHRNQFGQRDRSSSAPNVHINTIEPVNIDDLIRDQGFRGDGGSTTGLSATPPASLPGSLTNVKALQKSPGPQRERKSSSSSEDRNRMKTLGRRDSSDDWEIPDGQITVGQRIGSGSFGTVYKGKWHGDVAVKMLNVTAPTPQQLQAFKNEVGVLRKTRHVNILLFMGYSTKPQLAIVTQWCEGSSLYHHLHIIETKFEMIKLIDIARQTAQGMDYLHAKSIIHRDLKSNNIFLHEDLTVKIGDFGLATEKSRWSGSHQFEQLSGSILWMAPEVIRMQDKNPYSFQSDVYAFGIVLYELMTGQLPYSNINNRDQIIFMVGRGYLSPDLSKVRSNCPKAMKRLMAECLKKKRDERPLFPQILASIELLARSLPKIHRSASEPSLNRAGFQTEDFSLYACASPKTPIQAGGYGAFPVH
Description: (§3) Inhibition of kinase activity by a test compound disclosed herein was estimated by quantifying the amount of [^33P] incorporation of a substrate in the presence of the test compound. Standard assay conditions were 5 ng of recombinant B-Raf^V600E kinase (Upstate Biotechnology) with 500 ng MEK1 (K97R) in assay buffer (8 μM ATP, 0.5 μCi [^33P]ATP (specific activity 3000 Ci/mmol, PerkinElmer), 50 mM Tris/HCl (pH 7.5), and 1 mM EGTA, 1 mM Na3VO4, 1% 2-mercaptoethanol, 0.1% Brij 35, and 0.2 mg/ml BSA), and the test compound (diluted with 4% DMSO) or DMSO alone (as a control) in a final volume of 25 μL. Reactions were incubated at 30° C. for 30 min and stopped by adding 3% phosphoric acid, harvested onto a 96-well GF/B UniFilter (PerkinElmer) using a unifilter harvester (PerkinElmer), and counted with a TopCount microplate scintillation counter (PerkinElmer). The IC50 values of inhibitors were determined after carrying out assays at 3-fold serially diluted concentrations of each compound in duplication. The results were analyzed using linear regression software (GraphPad Prism 4; GraphPad Software Inc.).

[5] = molecular target: T2, B-Raf kinase (Homo sapiens, UniProt P15056); test: B-Raf kinase assay ([33P] incorporation into MEK1 K97R); assay type: biochemical; details: recombinant B-Raf, 8 μM ATP, 30 min, 30° C.; read-out: IC50 ranking against B-Raf kinase
T2 construct: purchased Upstate Biotechnology
T2 sequence (P15056 whole entry): as the sequence (P15056 whole entry V600E) above, with E600V counted along it
Description: Inhibition of kinase activity by a test compound disclosed herein was estimated by quantifying the amount of [^33P] incorporation of a substrate in the presence of the test compound. Standard assay conditions were 5 ng of recombinant B-Raf kinase (Upstate Biotechnology) with 500 ng MEK1(Map-erk kinase; K97R) in the assay buffer (8 μM ATP, 0.5 μCi [^33P]ATP (specific activity 3000 Ci/mmol, PerkinElmer), 50 mM Tris/HCl (pH 7.5), and 1 mM EGTA, 1 mM Na3VO4, 1% 2-mercaptoethanol, 0.1% Brij 35, and 0.2 mg/ml BSA) in a final volume of 25 μL. Reactions were incubated at 30° C. for 30 min and stopped by adding 3% phosphoric acid, harvested onto a 96-well GF/B UniFilter (PerkinElmer) using a unifilter harvester (PerkinElmer), and counted with a TopCount microplate scintillation counter (PerkinElmer). The IC50 values of inhibitors were determined after carrying out assays at 3-fold serially diluted concentrations of each compound in duplication. The results were analyzed using linear regression software (GraphPad Prism 4; GraphPad Software Inc.).

[6] = molecular target: T3, C-Raf kinase (Homo sapiens, UniProt P04049); test: C-Raf kinase assay ([33P] incorporation into MEK1 K97R); assay type: biochemical; details: recombinant C-Raf, 8 μM ATP, 30 min, 30° C.; read-out: IC50 ranking against C-Raf kinase
T3 construct: purchased Upstate Biotechnology
T3 sequence (P04049 whole entry): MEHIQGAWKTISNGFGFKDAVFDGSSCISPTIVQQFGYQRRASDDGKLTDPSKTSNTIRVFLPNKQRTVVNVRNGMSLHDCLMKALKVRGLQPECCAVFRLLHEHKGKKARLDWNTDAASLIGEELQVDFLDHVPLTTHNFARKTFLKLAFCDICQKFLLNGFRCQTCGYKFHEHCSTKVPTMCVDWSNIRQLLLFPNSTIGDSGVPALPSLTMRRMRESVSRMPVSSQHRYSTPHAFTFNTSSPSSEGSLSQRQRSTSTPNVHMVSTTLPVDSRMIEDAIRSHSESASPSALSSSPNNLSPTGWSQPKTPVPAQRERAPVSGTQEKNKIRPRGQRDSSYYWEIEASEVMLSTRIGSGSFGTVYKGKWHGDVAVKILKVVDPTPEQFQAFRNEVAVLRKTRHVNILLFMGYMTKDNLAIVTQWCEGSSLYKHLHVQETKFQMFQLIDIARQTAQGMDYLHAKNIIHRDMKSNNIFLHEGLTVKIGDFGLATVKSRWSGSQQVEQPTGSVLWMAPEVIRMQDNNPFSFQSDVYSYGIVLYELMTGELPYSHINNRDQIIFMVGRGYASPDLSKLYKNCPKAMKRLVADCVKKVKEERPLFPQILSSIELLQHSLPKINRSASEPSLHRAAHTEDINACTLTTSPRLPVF
Description: as §3, with “were 2” for “were 5”, “recombinant C-Raf” for “recombinant B-Raf^V600E”, “ng MEK1(K97R)” for “ng MEK1 (K97R)”

SMILES | IC50 [1] [nM] | IC50 [2] [nM] | IC50 [3] [nM] | IC50 [4] [nM] | IC50 [5] [nM] | IC50 [6] [nM]
CCCS(=O)(=O)Nc1ccc(F)c(Nc2ccc3ncc(OCCN(C)C)nc3c2[N+](=O)[O-])c1F [compound 9, N1-[3-({3-[2-(dimethylamino)ethoxy]-5-nitro-6-quinoxalinyl}amino)-2,4-difluorophenyl]-1-propanesulfonamide] | < 300 | < 300 | > 10000 | < 300 | < 300 | < 300
N#Cc1c(Nc2cc(NS(=O)(=O)c3ccccc3)ccc2F)ccc2ncc(N3CCOCC3)nc12 [compound 25, N-(3-(5-cyano-3-morpholinoquinoxalin-6-ylamino)-4-fluorophenyl)benzenesulfonamide] | < 300 | 300 to 1000 | > 10000 | < 300 | < 300 | < 300
CCCS(=O)(=O)Nc1ccc(F)c(Nc2ccc3ncc(OC)nc3c2C#N)c1F [compound 10, N1-{3-[(5-cyano-3-methoxy-6-quinoxalinyl)amino]-2,4-difluorophenyl}-1-propanesulfonamide] | < 300 | < 300 | > 10000 | < 300 | < 300 | < 300
COc1cnc2ccc(Nc3c(F)ccc(NS(=O)(=O)c4ccccc4)c3Cl)c(C#N)c2n1 [compound 47, N-(2-chloro-3-(5-cyano-3-methoxyquinoxalin-6-ylamino)-4-fluorophenyl)benzenesulfonamide] | < 300 | < 300 | > 10000 | < 300 | < 300 | < 300
CCCS(=O)(=O)N(CC)c1ccc(F)c(Nc2ccc3ncc(OC)nc3c2C#N)c1F [compound 42, N-(3-(5-cyano-3-methoxyquinoxalin-6-ylamino)-2,4-difluorophenyl)-N-ethylpropane-1-sulfonamide] | < 300 | < 300 | > 10000 | < 300 | < 300 | < 300
CCCS(=O)(=O)Nc1ccc(F)c(Nc2ccc3ncc(Nc4c(F)ccc(NS(=O)(=O)CCC)c4F)nc3c2)c1F [compound 1, N1-3-[(3-{2,6-difluoro-3-[(propylsulfonyl)amino]anilino}-6-quinoxalinyl)amino]-2,4-difluorophenyl-1-propanesulfonamide] | 1000 to 10000 | 1000 to 10000 | > 10000 | < 300 | < 300 | < 300
CCCS(=O)(=O)Nc1ccc(F)c(Nc2ccc3ncc(NC)nc3c2C#N)c1F [compound 20, N-(3-(5-cyano-3-(methylamino)quinoxalin-6-ylamino)-2,4-difluorophenyl)propane-1-sulfonamide] | < 300 | < 300 | > 10000 | < 300 | < 300 | < 300
CCCS(=O)(=O)Nc1cccc(Nc2ccc3ncc(N4CCOCC4)nc3c2C#N)c1C [compound 38, N-(3-(5-cyano-3-morpholinoquinoxalin-6-ylamino)-2-methylphenyl)propane-1-sulfonamide] | < 300 | < 300 | > 10000 | < 300 | < 300 | < 300
CCCS(=O)(=O)Nc1ccc(F)c(Nc2ccc3ncc(Nc4ccccc4F)nc3c2)c1F [compound 11, N1-(2,4-difluoro-3-{[3-(2-fluoroanilino)-6-quinoxalinyl]amino}phenyl)-1-propanesulfonamide] | 1000 to 10000 | 300 to 1000 | > 10000 | < 300 | < 300 | < 300
COc1cnc2ccc(Nc3cc(NS(C)(=O)=O)ccc3F)c(C#N)c2n1 [compound 41, N-(3-(5-cyano-3-methoxyquinoxalin-6-ylamino)-4-fluorophenyl)methanesulfonamide] | 1000 to 10000 | 1000 to 10000 | > 10000 | 1000 to 10000 | 1000 to 10000 | 1000 to 10000
CCCS(=O)(=O)Nc1ccc(F)c(Nc2ccc3ncc(OC)nc3c2C#N)c1Cl [compound 46, N-(2-chloro-3-(5-cyano-3-methoxyquinoxalin-6-ylamino)-4-fluorophenyl)propane-1-sulfonamide] | < 300 | < 300 | > 10000 | < 300 | < 300 | < 300
CCCS(=O)(=O)Nc1cccc(Nc2ccc3ncc(OC)nc3c2C#N)c1C [compound 44, N-(3-(5-cyano-3-methoxyquinoxalin-6-ylamino)-2-methylphenyl)propane-1-sulfonamide] | 300 to 1000 | 300 to 1000 | > 10000 | 300 to 1000 | < 300 | < 300
CCCS(=O)(=O)Nc1ccc(F)c(Nc2ccc3ncc(N4CCOCC4)nc3c2C#N)c1 [compound 23, N-(3-(5-cyano-3-morpholinoquinoxalin-6-ylamino)-4-fluorophenyl)propane-1-sulfonamide] | < 300 | < 300 | > 10000 | 300 to 1000 | 300 to 1000 | 1000 to 10000
CCCS(=O)(=O)Nc1c(F)ccc(Nc2ccc3ncc(OC)nc3c2C#N)c1F [compound 21, N-(3-(5-cyano-3-methoxyquinoxalin-6-ylamino)-2,6-difluorophenyl)propane-1-sulfonamide] | < 300 | < 300 | > 10000 | < 300 | < 300 | < 300
CCCS(=O)(=O)N(C)c1ccc(F)c(Nc2ccc3ncc(OC)nc3c2C#N)c1F [compound 43, N-(3-(5-cyano-3-methoxyquinoxalin-6-ylamino)-2,4-difluorophenyl)-N-methylpropane-1-sulfonamide] | < 300 | < 300 | > 10000 | < 300 | < 300 | < 300
